Data reported in patent US10073082B2, “Proteasome inhibition assay and methods of use” (UNIVERSITY HEALTH NETWORK, priority 2013, dated 2018).

Tests used:
[1] = system: IκB in peripheral blood monocytes; test: TNFα induced degradation of IκB in monocytes from pretreated whole blood; assay type: cell-based, human; settings: TNFα activated monocytes, whole blood pretreated with inhibitor
Protocol: (§1) Whole blood samples from normal human donors were collected. 100 μL aliquots of the whole blood were inserted into the bottom of 12×75 mm tubes. In order to reduce the potential for contamination of the sample with unfixed cells, blood was removed from the side of the tubes with a cotton swab. 1-2 μL of a proteasome effector was added to a first portion of the tubes and these tubes were incubated for 2 hours at 37° C. in a water bath. In this example, the proteasome effector was Bortezomib or MG-132, both proteasome inhibitors. […]
(§2) Following the above wash steps, the fixed and permeabilized cells were resuspended in 100 μL of cold Wash Buffer comprising antibodies to specific intracellular antigens (e.g., signaling targets including P-ERK, P-Akt, P-p38, P-SAPK, P-S6, and antibodies to IκB). […] The supernatant was aspirated and the cell pellet was resuspended in 350 μL of Resuspension Buffer (PerFix-P® kit) and analyzed on a flow cytometer (GALLIOS™) using a protocol with defined population gates and series of dual parameter histograms. A CD45-KO vs. SS dual parameter histogram was collected and a gate around the leukocyte population based on the CD45+ fluorescence and SS characteristics was drawn to exclude debris (CD45 negative events). […] The collected flow cytometric data was analyzed using KALUZA™ software. […]

[2] = system: P-ERK in peripheral blood monocytes; test: TNFα induced ERK activation in monocytes from pretreated whole blood; assay type: cell-based, human; settings: TNFα activated monocytes, whole blood pretreated with inhibitor
Protocol: as §1, §2

IκB in granulocytes = test: Flow cytometry assay, whole blood pretreated with effector: IκB levels in granulocytes after LPS; assay type: cell-based, human; settings: whole blood pretreated with inhibitor, then LPS; 60 minutes time period
Protocol: (§3) The assay generally comprises treating whole blood with an IκB degradation agonist and/or proteasome effector, fixing the blood cells, permeabilizing the fixed bloods cells, treating the fixed and permeabilized cells with an alcohol treatment to unmask intracellular phosphor-epitopes, and then staining the treated cells with antibodies for flow cytometry analysis.
(§4) Whole blood samples from normal human donors were collected. 100 μL aliquots of the whole blood were inserted into the bottom of 12×75 mm tubes. In order to reduce the potential for contamination of the sample with unfixed cells, blood was removed from the side of the tubes with a cotton swab. […]
(§5) Following the above wash steps, the fixed and permeabilized cells were resuspended in 100 μL of cold Wash Buffer comprising antibodies to specific intracellular antigens (e.g., signaling targets including P-ERK, P-Akt, P-p38, P-SAPK, P-S6, and antibodies to IκB). […] The supernatant was aspirated and the cell pellet was resuspended in 350 μL of Resuspension Buffer (PerFix-P® kit) and analyzed on a flow cytometer (GALLIOS™) using a protocol with defined population gates and series of dual parameter histograms. A CD45-KO vs. SS dual parameter histogram was collected and a gate around the leukocyte population based on the CD45+ fluorescence and SS characteristics was drawn to exclude debris (CD45 negative events). […]

[3] = system: IκB in peripheral blood lymphocytes; test: Flow cytometry assay, whole blood pretreated with effector: LPS induced degradation of IκB in lymphocytes; assay type: cell-based, human; settings: whole blood pretreated with inhibitor, then LPS
Protocol: as §3, §4, §5

[4] = system: IκB in peripheral blood monocytes; test: Flow cytometry assay, whole blood pretreated with effector: LPS induced degradation of IκB in monocytes; assay type: cell-based, human; settings: monocytes, whole blood pretreated with inhibitor 2 hours at 37° C., then LPS; within 10 minutes
Protocol: as §1, with “inhibitors. Following pretreatment with the proteasome effector, 2 μL of 50 mg/mL stock solution (100 ng) of an IκB degradation agonist was added to the tubes and the tubes were incubated from 1 minute to 60 minutes at 37° C. in a water bath. In this example, the agonist was lipopolysaccharide (LPS). A second portion of the tubes were treated with the IκB degradation agonist and no proteasome effector.” for “inhibitors.”
Following the above wash steps, the fixed and permeabilized cells were resuspended in 100 μL of cold Wash Buffer comprising antibodies to specific intracellular antigens (e.g., signaling targets including P-ERK, P-Akt, P-p38, P-SAPK, P-S6, and antibodies to IκB). […] The supernatant was aspirated and the cell pellet was resuspended in 350 μL of Resuspension Buffer (PerFix-P® kit) and analyzed on a flow cytometer (GALLIOS™) using a protocol with defined population gates and series of dual parameter histograms. A CD45-KO vs. SS dual parameter histogram was collected and a gate around the leukocyte population based on the CD45+ fluorescence and SS characteristics was drawn to exclude debris (CD45 negative events). […] The collected flow cytometric data was analyzed using KALUZA™ software.
Phosphorylation of signaling pathways activated by LPS, including ERK, Akt (activated by PI3 Kinase), and the ribosomal S6 protein (a marker of protein synthesis) were also monitored together with the degradation of IκB. […] The degradation of IκB in cells pretreated with MG-132 or GDC-0941 was monitored by flow cytometry as described in Example 1. […]

[5] = system: proteasome activity (IκB degradation, ERK activation) in monocytes; test: Proteasome inhibition in blood monocytes of Multiple Myeloma patients receiving Bortezomib therapy (LPS stimulation ex vivo); set-up: species or system human
Protocol: (§6) Whole blood samples from eight Multiple Myeloma (MM) patients were obtained. For three of the MM patients (MM003-MM005), whole blood samples were tested with or without LPS activation (10 min stimulation at 37° C.) and the samples were processed and analyzed for IκB degradation and signaling pathway activation as described in Example 1.
(§7) Blood samples from the 5 remaining MM patients samples were pretreated with Bortezomib or RP-171 (Carfilzomib, a covalent proteasome inhibitor) and then tested and analyzed with or without LPS activation (10 min LPS at 37 37° C.) for IκB degradation and signaling pathway activation as described in Example 1. […] All of the MM patients tested were receiving Bortezomib therapy.

[6] = system: peripheral blood lymphocytes; test: IκB degradation agonists in whole blood: IκB degradation and signaling pathway activation in lymphocytes; assay type: cell-based, human; settings: for Pathways Activated: Target Cell Population: Lymphocytes (subpopulation)
Protocol: (§8) Whole blood samples from normal human donors were collected. 100 μL aliquots of the whole blood were inserted into the bottom of 12×75 mm tubes. In order to reduce the potential for contamination of the sample with unfixed cells, blood was removed from the side of the tubes with a cotton swab. 1-2 μL of a proteasome effector was added to a first portion of the tubes and these tubes were incubated for 2 hours at 37° C. in a water bath. In this example, the proteasome effector was Bortezomib or MG-132, both proteasome inhibitors. Following pretreatment with the proteasome effector, 2 μL of […] stock solution (100 ng) of an IκB degradation agonist was added to the tubes and the tubes were incubated from 1 minute to 60 minutes at 37° C. in a water bath. In this example, the agonist was lipopolysaccharide (LPS). A second portion of the tubes were treated with the IκB degradation agonist and no proteasome effector. 2 μL of an IκB degradation agonist was added to these tubes and the tubes were incubated from 1 minute to 60 minutes as described above. For control tubes, 2 μL of phosphate buffered saline (PBS) was added to the tubes and the tubes were incubated as described above.
(§9) Following incubation, the cells were fixed and permeabilized with a PerFix-P® kit (Beckman Coulter, Inc., Brea. Calif.) according to the manufacturer's instructions. The fixed and permeabilized cells were then washed with 2 mL of Wash Buffer (PBS (w/o Ca++/Mg++) with 2% fetal bovine serum (FBS), sterile filtered (0.22 μm filter)) in the tubes and centrifuged at 500×g for 4 minutes. The cell pellet was resuspended in 2 mL of cold (4° C.) Wash Buffer, centrifuged at 500×g for 4 minutes, and the supernatant was aspirated.
(§10) Following the above wash steps, the fixed and permeabilized cells were resuspended in 100 μL of cold Wash Buffer comprising antibodies to specific intracellular antigens (e.g., signaling targets including P-ERK, P-Akt, P-p38, P-SAPK, P-S6, and antibodies to IκB). The antibodies were labeled with different fluorochromes (e.g. fluorophores) to facilitate their-individual measurement of the intracellular antigens. In order to target specific cell populations in the assay, antibodies capable of differentiating cell populations within the blood sample were also included in some of the tubes. For example, anti-CD14 antibodies were included to specifically label monocytes, anti-CD3 antibodies or anti-CD19 antibodies were included to specifically label T or B-cells respectively, and/or anti-CD38/CD138 antibodies were included to specifically label plasma cells. The cells were incubated with the antibodies for 30 minutes at room temperature and then the cells were washed in 2 mL of cold Wash Buffer and centrifuged as described above. The supernatant was aspirated and the cell pellet was resuspended in 350 μL of Resuspension Buffer (PerFix-P® kit) and analyzed on a flow cytometer (GALLIOS™) using a protocol with defined population gates and series of dual parameter histograms. A CD45-KO vs. SS dual parameter histogram was collected and a gate around the leukocyte population based on the CD45+ fluorescence and SS characteristics was drawn to exclude debris (CD45 negative events). A minimum of 2,500 CD14+ events were collected. A stop count region was set from the CD14-PC7 vs. SS histogram gated on monocytes. Dual parameter histograms gated on the appropriate populations were created to measure the populations of interest. The collected flow cytometric data was analyzed using KALUZA™ software.
(§11) Phosphorylation of signaling pathways activated by TNF-α, including ERK, Akt, and the ribosomal S6 protein, was monitored together with the degradation of IκB in peripheral blood WBCs. Whole blood samples were treated, activated, and processed as described in Example 1 and the degradation of IκB in peripheral blood cells was monitored by flow cytometry as described in Example 1. The IκB degradation agonist used in this example was TNF-α. […]

[7] = system: peripheral blood monocytes; test: IκB degradation agonists in whole blood: IκB degradation and signaling pathway activation in monocytes; assay type: cell-based, human; settings: for Pathways Activated: Target Cell Population: Monocytes
Protocol: as §8, §9, §10, §11

granulocytes = test: IκB degradation agonists in whole blood: IκB degradation and signaling pathway activation in granulocytes; assay type: cell-based, human
Protocol: as §8, §9
Following the above wash steps, the fixed and permeabilized cells were resuspended in 100 μL of cold Wash Buffer comprising antibodies to specific intracellular antigens (e.g., signaling targets including P-ERK, P-Akt, P-p38, P-SAPK, P-S6, and antibodies to IκB). The antibodies were labeled with different fluorochromes (e.g. fluorophores) to facilitate their-individual measurement of the intracellular antigens. […] The supernatant was aspirated and the cell pellet was resuspended in 350 μL of Resuspension Buffer (PerFix-P® kit) and analyzed on a flow cytometer (GALLIOS™) using a protocol with defined population gates and series of dual parameter histograms. A CD45-KO vs. SS dual parameter histogram was collected and a gate around the leukocyte population based on the CD45+ fluorescence and SS characteristics was drawn to exclude debris (CD45 negative events). […] The collected flow cytometric data was analyzed using KALUZA™ software.

monocytes of MM patients = test: LPS stimulation of monocytes in whole blood of Multiple Myeloma patients; assay type: cell-based, human; settings: 10 min LPS
Protocol: as §6, §7

[8] = three MM patients (MM003-MM005), 10 min LPS at 37° C.

With `CC(C)C[C@H](NC(=O)[C@H](Cc1ccccc1)NC(=O)c1cnccn1)B(O)O` [Bortezomib] as the compound, how does the “degradation of IκB” value [1] read?
Its value is “completely inhibited”.

And the “activation of ERK” value [2]?
The value was “completely inhibited”.

What about the “degradation of IκB in granulocytes” value (IκB in granulocytes) of the same compound?
Its value is “No significant degradation”.

And the “LPS induced degradation of IκB in lymphocytes” value [3]?
Its value is “inhibition of LPS induced degradation of IκB”.

What about the “loss in measured IκB” value [4] of the same compound?
Its value is about 10%.

What about the proteasome inhibition ([5]; all MM patients tested, blood draw a week after the treatment) of the same compound?
Its proteasome inhibition is “no proteasome inhibition was detected”.

What about the “inhibition of ERK activation following LPS stimulation” value [5, 8] of the same compound?
Its value is “no inhibition”.

And the “inhibition of IκB degradation following LPS stimulation” value [5, 8]?
The value was “no inhibition”.

What does the source list for lipopolysaccharide [LPS]?
Pathways Activated ([6]; pathway: ERK MAP kinase (Tpl-2)): ERK MAP kinase (Tpl-2); Pathways Activated ([6]; pathway: IκB > NFκB): IκB > NFκB; Pathways Activated ([6]; pathway: PI3 kinase > Akt): PI3 kinase > Akt; degradation of IκB in lymphocytes at 10 min ([6]; agonist alone, 10 min): no significant degradation; Pathways Activated ([7]; pathway: IκB > NFκB): IκB > NFκB; Pathways Activated ([7]; pathway: P-p 38 MAP kinase): P-p 38 MAP kinase; Pathways Activated ([7]; pathway: PI3 kinase > Akt): PI3 kinase > Akt; Pathways Activated ([7]; pathway: SAP/JNK MAP kinase): SAP/JNK MAP kinase; Pathways Activated ([7]; pathway: Tpl-2 > ERK/MAP kinase): Tpl-2 > ERK/MAP kinase; loss in measured IκB ([7]; agonist alone, normal donors, monocytes, within 10 minutes of treatment): 60-70%; Pathways Activated (granulocytes; Target Cell Population: Granulocytes): P-p38 MAP kinase; degradation of IκB in granulocytes (granulocytes; agonist alone): No significant degradation; loss of IκB (monocytes of MM patients; six MM samples): 60-70%; percent decrease of IκB MFI (monocytes of MM patients; two MM samples): 48%
